Like-named read-outs stand apart in the source and are kept apart here.
B1: Plasmodium falciparum cytoplasmic tyrosine tRNA synthetase (enzyme, P. falciparum)
chain: METTDTKREEQEIEEKKAQEESKIEDVDKILNDILSISSECIQPDELRVKLLLKRKLICYDGFEPSGRMHIAQGLLKSIIVNKLTSNGCTFIFWIADWFAHLNNKMSGDLKKIKKVGSYFIEVWKSCGMNMENVQFLWASEEINKKPNEYWSLVLDISRSFNINRMKRCLKIMGRSEGEENYCSQILYPCMQCADIFFLNVDICQLGIDQRKVNMLAREYCDIKKIKKKPVILSHGMLPGLLEGQEKMSKSDENSAIFMDDSESDVNRKIKKAYCPPNVIENNPIYAYAKSIIFPSYNEFNLVRKEKNGGDKTYYTLQELEHDYVNGFIHPLDLKDNVAMYINKLLQPVRDHFQNNIEAKNLLNEIKKYKVTK
notes: Plasmodium falciparum cytoplasmic tyrosine tRNA synthetase; also called PfTyrRS; His-PfTyrRS; source: E. coli BL21(DE3), purified (HisTrap HP, TEV cleavage, second HisTrap HP, Superdex 200 gel filtration)

Assays:
[1] = system: P. falciparum (3D7, ring stage) cultures; assay: P. falciparum 3D7 72-h growth inhibition, lactate dehydrogenase (PfLDH) assay; type: cell-based; conditions: Plasmodium falciparum, 72 h exposure
Description: Routine analyses of antimalarial activity against P. falciparum 3D7 was tested by TCGLS (Kolkata, India) using the lactate dehydrogenase (PfLDH) growth inhibition assay as previously described. […] P. falciparum strain (3D7) was obtained from BEI Resources.

PfTyrRS [2] = target: T1, PfTyrRS (Plasmodium falciparum, UniProt Q8IAR7); assay: ATP consumption by PfTyrRS (Kinase Glo); type: biochemical; conditions: PfTyrRS 25 nM, ATP 10 μM, tyrosine 200 μM, cognate tRNA^Tyr 4.8 μM, 37°C 1 h; read-out: Inhibition of PfTyrRS (Kinase Glo) IC50
Description: Consumption of ATP was measured using a luciferase-based assay as per the manufacturer’s instructions (Kinase-Glo Luminescent Kinase Assay, Promega).

HepG2 cells = assay: HepG2 72-h viability, CellTiter-Glo; type: cell-based; conditions: Homo sapiens, 72 h exposure
Description: The HepG2 (Human hepatocyte carcinoma) cell line was procured from ATCC (American Type Culture Collection, Manassas, USA; HB-8065) and viability assessed using CellTiter-Glo luminescent cell viability assay reagents (Promega). For the assay, 2,000 cells/well were plated in 384-well plates 24 h prior to the experiment and incubated at 37°C in a CO2 incubator. The medium was removed; and cells were treated with fresh medium containing either vehicle (0.5% DMSO) or serially diluted compounds or doxorubicin (1.3 nM to 25 μM) in a final volume of 50 μL/well and further incubated for 72 h at 37°C in a CO2 incubator. […] Following incubation, 25 μL of medium was discarded and 25 μl of CellTiter-Glo reagent was added to each well and the plate was kept on a plate shaker for 15 min at 25°C with shaking at 300 rpm. Luminescence signals were measured in a PHERAstar FSX reader (BMG LABTECH).

PfTyrRS [3] = target: T1, PfTyrRS; assay: Differential scanning fluorimetry (DSF) of PfTyrRS; type: binding; conditions: for ΔTm at 50 µM: 50 μM sulfamate, tyrosine, PftRNA^Tyr, 37°C 2 h, read-out: PfTyrRS binding (DSF) Delta Tm; for ΔTm at 50 µM / PfTyrRS Tm: ATP; for Kd: estimated from DSF with an irreversible thermal unfolding model, read-out: PfTyrRS binding (DSF) apparent KD; for PfTyrRS Tm: with sulfamate, tyrosine and tRNA, apo 49.9 ± 0.6
Description: The effect on ML471 and analogues on the thermal stability of TyrRS enzymes was assayed as previously described. […] SYPRO Orange (Sigma-Aldrich; 5,000X concentrate in DMSO) was added to the reaction mixture at a final concentration of 5X. 25 μL of the sample was added into each well of a 96-well qPCR plate (Applied Biosystems). The plate was sealed and analysed using StepOnePlus Real-Time PCR system (Applied Biosystems). The samples were heated from 20°C to 90°C with a 1% continuous gradient. The thermal unfolding curve was plotted as the first derivative curve of the raw fluorescence values. The melting temperature (Tm), defined as the peak of the first derivative curve, was used to assess the thermal stability of protein-ligand complexes.

[4] = system: Pf3D7-pfs16-CBG99 gametocytes, immature (stage II/III) and mature (stage V); assay: Gametocyte killing assay (luciferase); type: cell-based; conditions: Plasmodium falciparum, 48 h
Description: Gametocytogenesis was induced on a tightly synchronised (>97% rings) asexual parasite culture (Pf3D7-pfs16-CBG99 (kind gift from Pietro Alano), 0.5% parasitemia and 6% hematocrit) with a combination of nutrient starvation and a decrease in hematocrit, as previously described. For immature gametocytes (>90% stage II/III), cultures were exposed to 50 mM N-acetyl glucosamine (NAG) on days 1–4 to eliminate residual asexual parasites and harvested at days 5–6. For mature (>95% stage V) gametocytes, NAG treatment occurred from days 3–7 and harvest at day 13. Stage II/III and V gametocyte cultures (2 % gametocytaemia 1.5 % haematocrit, 150 μL/well) were exposed to compounds and incubated at 37°C for 48 h under hypoxic conditions, after which luciferase activity was determined with a non-lysing D-luciferin substrate (1mM in 0.1M citrate buffer, pH 5.5, 100 μL) and bioluminescence was detected with a 2 s integration time with a GloMax-Multi Detection System with Instinct software.

Primary hepatocytes = assay: Toxicity to primary hepatocyte host cells in the liver stage assay; type: cell-based, human; conditions: Homo sapiens, Hepatocyte, host cells of the NF135 experiment
Description: (§1) Activity against liver stage parasites was performed using a modification of published procedures. Briefly, cryopreserved human primary hepatocytes (NF175: H1500.H15B+ Lot No. HC0-6, TebuBio or NF135: F00995-P Lot No. IRZ, BioIVT) were thawed and seeded at 18,000 cells per well in collagen-coated 384-well microtiter plates in medium containing 10% heat inactivated fetal bovine serum (hiFBS). Cells were cultured at 37°C in 5% CO2. For NF175, medium was replaced by fresh medium containing 10% hiFBS, 5 h post plating. For NF135, medium was replaced by medium containing 0.2% BSA, 24 h post plating. 48 h post plating, salivary glands from Plasmodium-NF175 or NF135-infected Anopheles stephensi mosquitoes were dissected, added to the hepatocytes (10,000 per well/ NF175; or 12,500 per well/ NF135) and allowed to infect for 3 hours. Sporozoites were then aspirated, and compounds diluted in medium containing 10% hiFBS or 0.2% BSA, were added to the hepatocytes. Medium containing 10% hiFBS or 0.2% BSA and compounds was refreshed daily for four days. Hepatocytes were fixed with ice-cold methanol and samples were blocked with 10% hiFBS in PBS. Schizonts were stained with rabbit anti-HSP70 in 10% hiFBS for 1–2 h followed by incubation with a mixture of secondary goat anti-rabbit AlexaFluor 594 antibody and 4′,6-diamidine-2′-phenylindole dihydrochloride (DAPI) in 10% hiFBS for 30 min. Samples were washed with PBS containing 0.05% Tween 20 between different steps. Cells were imaged on a PicoExpress high content imager, and images were analysed automatically using CellReporterXpress software. Data were analysed by logistic regression using a four-parameter (Hill equation) model and a least-squares method to find the best fit.

[5] = system: P. falciparum liver stage schizont (NF135); assay: Liver stage schizont assay in primary human hepatocytes (NF135); type: cell-based; conditions: Plasmodium falciparum, Hepatocyte, 96 h, four days
Description: as §1

[6] = system: P. falciparum (strain 3D7A); assay: Parasite Reduction Rate (PRR) estimation; type: cell-based, Plasmodium falciparum; conditions: 10 x IC50
Description: PRR was assessed using a standardized method. P. falciparum (strain 3D7A, MRA-151), contributed by David Walliker, was obtained through BEI Resources, NIAID, NIH. Cultures of parasites (~90% ring stage) were treated with compounds for 120 h, with daily renewal. Samples of parasites were taken at 0, 24, 48, 72, 96 and 120 h. Compounds were washed out and four independent 3-fold serial dilutions were established in 96-well plates, with fresh RBCs and culture medium. After 18 days, and again at 22 days, samples were taken to examine growth using SYBR Green I in an EnVision Multilabel Plate Reader (Perkin Elmer) and analysed using Excel and Grafit 5.0 software. The human biological samples were sourced ethically, and their research use was in accord with the terms of the informed consents under an IRB/EC approved protocol.

[7] = target: the molecule itself; assay: crystal structure; PfTyrRS (10 mg/mL) with 500 uM synthetic Tyr-ML471; sitting drop vapour diffusion at 20°C, 2.25 M sodium malonate pH 6; refined at 1.8 Å
[8] = read-out: Early stage gametocytes IC50
[9] = read-out: Mature stage gametocytes IC50

Molecule | IC50 [1] | IC50 (PfTyrRS [2]) | IC50 (HepG2 cells) | ΔTm at 50 µM (PfTyrRS [3]) | Kd (PfTyrRS [3]) | PfTyrRS Tm (PfTyrRS [3]) | IC50 [4, 8] | IC50 [4, 9] | further results
CC(=O)c1nn([C@@H]2O[C@H](COS(N)(=O)=O)[C@@H](O)[C@H]2O)c2ncnc(N)c12 [ML111] | 4.3 ± 0.7 nM | 34000 ± 14000 nM | > 50000 nM | 15.1 ± 0.2 °C | 0.7 nM | 65.0 ± 0.5 °C | – | – | –
Nc1ncnc2c1c(C1CC1)nn2[C@@H]1O[C@H](COS(N)(=O)=O)[C@@H](O)[C@H]1O [ML864] | 2.5 ± 0.6 nM | 8500 ± 4500 nM | 21300 nM | 17 ± 0.1 °C | 0.3 nM | 66.9 ± 0.5 °C | – | – | –
CS(=O)(=O)c1ccc(-c2cnc(N)c(-c3ccc(C(F)(F)F)nc3)c2)cc1 [MMV390048, reference compound] | – | – | – | – | – | – | 138 ± 8 nM | 150 ± 20 nM | IC50 (Primary hepatocytes): > 100 nM; IC50 [5]: 23.3 ± 13.3 nM
CN(C)c1ccc2nc3ccc(=[N+](C)C)cc-3sc2c1 [Methylene blue, reference compound] | – | – | – | – | – | – | 62 ± 11 nM | 353 ± 63 nM | –
CCc1nc(N)nc(N)c1-c1ccc(Cl)cc1 [Pyrimethamine, reference compound] | – | – | – | – | – | – | – | – | Lag phase [6]: 24 h; Log PRR [6]: 3.7; PCT99.9% [6]: 56 h; Slope [6]: -0.078
B1 | – | – | – | – | – | – | – | – | stoichiometry N [7]: 2

— article PMC11671014 (PLOS Pathogens, 2024)
